# Test results reported in paper PMC3800014 (Journal of insect physiology, 2013).
# Columns and labels:
# Type in all cases: cell-based
# [1] = target: T1, CquiOR1 (CquiOR1•CquiOrco) (Culex quinquefasciatus, UniProt S5RQ84); test: Xenopus oocyte recording, UM laboratory; conditions: agonist; co-expressed CquiOrco; positive control
# T1 sequence (S5RQ84 1-391): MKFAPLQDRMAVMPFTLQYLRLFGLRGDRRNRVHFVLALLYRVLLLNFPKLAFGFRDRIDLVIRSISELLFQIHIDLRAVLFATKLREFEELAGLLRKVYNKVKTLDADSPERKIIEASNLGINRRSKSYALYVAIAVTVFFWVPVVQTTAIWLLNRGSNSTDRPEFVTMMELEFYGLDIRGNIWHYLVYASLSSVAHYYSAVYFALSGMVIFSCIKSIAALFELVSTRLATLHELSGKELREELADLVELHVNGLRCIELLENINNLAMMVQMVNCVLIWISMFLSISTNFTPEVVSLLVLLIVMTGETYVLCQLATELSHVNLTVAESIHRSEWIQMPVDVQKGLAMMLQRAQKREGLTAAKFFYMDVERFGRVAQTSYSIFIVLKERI
# [2] = target: T1, CquiOR1 (CquiOR1•CquiOrco); test: two-electrode voltage clamp, Xenopus oocytes, inward current; conditions: agonist; co-expressed CquiOrco; -70 mV
# [3] = target: T2, CquiOR73 (CquiOR73•CquiOrco) (Culex quinquefasciatus, UniProt S5R433); test: as above; conditions: agonist; co-expressed CquiOrco; -70 mV
# T2 sequence (S5R433 1-396): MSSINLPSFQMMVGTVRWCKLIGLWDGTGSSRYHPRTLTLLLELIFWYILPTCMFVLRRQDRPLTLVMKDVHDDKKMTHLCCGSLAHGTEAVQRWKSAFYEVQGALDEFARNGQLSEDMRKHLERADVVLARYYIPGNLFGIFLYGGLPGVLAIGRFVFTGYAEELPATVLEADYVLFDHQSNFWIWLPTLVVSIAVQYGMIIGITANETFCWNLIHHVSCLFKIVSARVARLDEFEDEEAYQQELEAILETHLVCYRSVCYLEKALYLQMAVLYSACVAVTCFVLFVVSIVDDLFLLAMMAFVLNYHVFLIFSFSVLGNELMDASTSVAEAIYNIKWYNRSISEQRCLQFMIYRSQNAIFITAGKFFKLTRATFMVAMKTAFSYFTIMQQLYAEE
# [4] = target: T3, CquiOR44 (CquiOR44•CquiOrco) (Culex quinquefasciatus, UniProt S5RSX8); test: as above; conditions: agonist; co-expressed CquiOrco; -70 mV
# T3 sequence (S5RSX8 1-423): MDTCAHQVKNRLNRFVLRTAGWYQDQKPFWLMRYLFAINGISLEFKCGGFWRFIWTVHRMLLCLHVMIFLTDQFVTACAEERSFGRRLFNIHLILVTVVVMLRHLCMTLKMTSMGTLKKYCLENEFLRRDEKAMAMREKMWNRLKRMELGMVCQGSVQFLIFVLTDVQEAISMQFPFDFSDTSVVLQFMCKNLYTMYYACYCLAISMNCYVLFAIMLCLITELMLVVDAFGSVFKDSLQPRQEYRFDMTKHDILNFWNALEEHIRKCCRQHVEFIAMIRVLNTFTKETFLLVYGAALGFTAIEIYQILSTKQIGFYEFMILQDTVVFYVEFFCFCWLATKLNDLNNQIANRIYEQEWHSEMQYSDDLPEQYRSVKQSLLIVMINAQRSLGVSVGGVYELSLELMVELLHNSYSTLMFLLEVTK
compound,measurement,setting,value
CCc1ccc(O)cc1 [4-ethylphenol],"Xenopus oocyte recording, UM laboratory",[1],"medium to large responses when challenged with indole, 4-ethylphenol, 4-methylphenol, phenol"
CC(=O)c1ccccc1 [acetophenone],"Xenopus oocyte recording, UM laboratory",[1],"phenol, acetophenone, benzaldehyde, and 6-methyl-5-hepten-2-one"
CCCCCCO [1-hexanol],"two-electrode voltage clamp, Xenopus oocytes, inward current",[2],"when CquiOR1 was challenged with 1-hexanol, 1-octen-3-ol, 2-phenoxyethanol, or benzaldehyde"
C=CCc1ccc(O)c(OC)c1 [eugenol],"two-electrode voltage clamp, Xenopus oocytes, inward current",[3],eugenol was the best ligand identified for this OR
"CC1CCC(C(C)(C)O)C(O)C1 (stereo not drawn) [p-menthane-3,8-diol]","two-electrode voltage clamp, Xenopus oocytes, inward current",[4],"including known natural repellents like p-menthane-3,8-diol"
CC1(C)C(=O)[C@]2(C)CC[C@H]1C2 [(−)-fenchone],"two-electrode voltage clamp, Xenopus oocytes, inward current",[4],no chiral discrimination as responses to (+)- and (−)-fenchone did not differ
CCCCCCCCOC(C)=O [octyl acetate],"two-electrode voltage clamp, Xenopus oocytes, inward current",[3],"no significant response to the majority of compounds in the panel, except for octyl acetate"
C=CC(O)CCCCC (stereo not drawn) [1-octen-3-ol],"two-electrode voltage clamp, Xenopus oocytes, inward current",[2],"when CquiOR1 was challenged with 1-hexanol, 1-octen-3-ol, 2-phenoxyethanol, or benzaldehyde"
CC1(C)C(=O)[C@@]2(C)CC[C@@H]1C2 [(+)-fenchone],"two-electrode voltage clamp, Xenopus oocytes, inward current",[4],no chiral discrimination as responses to (+)- and (−)-fenchone did not differ
